The record followed here is the supplement of paper PMC10307832.

For one test, the system named is NCI-H1651. As to the kind of experiment: relative viability (nuclei count vs DMSO), 5 days (fraction); higher = more cells survive. Particulars: first compound 0.253 µM. In a few lines:
(§1)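 Relative viability divides the nuclei count in treated wells by that in vehicle wells. Lung cancer cell lines were seeded in 1536-well plates, dosed by pin tool the next day, and fixed and stained after 5 days in one step with final 0.05% Triton X-100, 1% formaldehyde and 1 ug/ml Hoechst. Dosing was a single drug or a fixed anchor-drug dose plus five library-drug doses (not always all listed) in √10 steps, and values are medians of duplicate plates imaged at 4×.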
For `Nc1cccc2c1CN(C1CCC(=O)NC1=O)C2=O` (stereo not given) [Lenalidomide] + CCNC(=O)c1noc(-c2cc(C(C)C)c(O)cc2O)c1-c1ccc(CN2CCOCC2)cc1 [Luminespib] (partner 0.01 µM), the relative viability was 0.713.
`Nc1cccc2c1CN(C1CCC(=O)NC1=O)C2=O` (stereo not given) [Lenalidomide] + Nc1ncn([C@H]2C[C@H](O)[C@@H](CO)O2)c(=O)n1 [Decitabine] (partner 2 µM) displayed a relative viability of 0.631.
Still for that read-out and setting: then `Nc1cccc2c1CN(C1CCC(=O)NC1=O)C2=O` (stereo not given) [Lenalidomide] + Cc1nc(Nc2ncc(C(=O)Nc3c(C)cccc3Cl)s2)cc(N2CCN(CCO)CC2)n1 [Dasatinib] (partner 0.075 µM), with 0.386; and `Nc1cccc2c1CN(C1CCC(=O)NC1=O)C2=O` (stereo not given) [Lenalidomide] + N=C(N)NC(=N)NCCc1ccccc1 [Phenformin] (partner 250 µM), with 0.301.
Consider `Nc1cccc2c1CN(C1CCC(=O)NC1=O)C2=O` (stereo not given) [Lenalidomide] + CC(=O)c1c(C)c2cnc(Nc3ccc(N4CCNCC4)cn3)nc2n(C2CCCC2)c1=O [Palbociclib] (partner 0.5 µM), for which the relative viability came out at 0.504.

Still in this test, the particulars now being: first compound 0.8 µM.
Compound `Nc1cccc2c1CN(C1CCC(=O)NC1=O)C2=O` (stereo not given) [Lenalidomide] + CCNC(=O)c1noc(-c2cc(C(C)C)c(O)cc2O)c1-c1ccc(CN2CCOCC2)cc1 [Luminespib] (partner 0.01 µM) yielded a relative viability of 0.895.
The compound `Nc1cccc2c1CN(C1CCC(=O)NC1=O)C2=O` (stereo not given) [Lenalidomide] + Nc1ncn([C@H]2C[C@H](O)[C@@H](CO)O2)c(=O)n1 [Decitabine] (partner 2 µM) had a relative viability of 0.5.
In turn, `Nc1cccc2c1CN(C1CCC(=O)NC1=O)C2=O` (stereo not given) [Lenalidomide] + Cc1nc(Nc2ncc(C(=O)Nc3c(C)cccc3Cl)s2)cc(N2CCN(CCO)CC2)n1 [Dasatinib] (partner 0.075 µM) came in with a relative viability of 0.419.
`Nc1cccc2c1CN(C1CCC(=O)NC1=O)C2=O` (stereo not given) [Lenalidomide] + N=C(N)NC(=N)NCCc1ccccc1 [Phenformin] (partner 250 µM) returned a relative viability of 0.351.
The compound `Nc1cccc2c1CN(C1CCC(=O)NC1=O)C2=O` (stereo not given) [Lenalidomide] + CC(=O)c1c(C)c2cnc(Nc3ccc(N4CCNCC4)cn3)nc2n(C2CCCC2)c1=O [Palbociclib] (partner 0.5 µM) yielded a relative viability of 0.485.

The test is the same for the next values; noted with them: first compound 2.53 µM.
For `Nc1cccc2c1CN(C1CCC(=O)NC1=O)C2=O` (stereo not given) [Lenalidomide] + CCNC(=O)c1noc(-c2cc(C(C)C)c(O)cc2O)c1-c1ccc(CN2CCOCC2)cc1 [Luminespib] (partner 0.01 µM), the relative viability was 0.987.
In turn, `Nc1cccc2c1CN(C1CCC(=O)NC1=O)C2=O` (stereo not given) [Lenalidomide] + Nc1ncn([C@H]2C[C@H](O)[C@@H](CO)O2)c(=O)n1 [Decitabine] (partner 2 µM) showed a relative viability of 0.645.
The compound `Nc1cccc2c1CN(C1CCC(=O)NC1=O)C2=O` (stereo not given) [Lenalidomide] + Cc1nc(Nc2ncc(C(=O)Nc3c(C)cccc3Cl)s2)cc(N2CCN(CCO)CC2)n1 [Dasatinib] (partner 0.075 µM) had a relative viability of 0.617.
Still for that read-out and setting: then `Nc1cccc2c1CN(C1CCC(=O)NC1=O)C2=O` (stereo not given) [Lenalidomide] + N=C(N)NC(=N)NCCc1ccccc1 [Phenformin] (partner 250 µM), with 0.493; and `Nc1cccc2c1CN(C1CCC(=O)NC1=O)C2=O` (stereo not given) [Lenalidomide] + CC(=O)c1c(C)c2cnc(Nc3ccc(N4CCNCC4)cn3)nc2n(C2CCCC2)c1=O [Palbociclib] (partner 0.5 µM), with 0.526.

Still in this test, the particulars now being: first compound 8 µM.
The compound `Nc1cccc2c1CN(C1CCC(=O)NC1=O)C2=O` (stereo not given) [Lenalidomide] + CCNC(=O)c1noc(-c2cc(C(C)C)c(O)cc2O)c1-c1ccc(CN2CCOCC2)cc1 [Luminespib] (partner 0.01 µM) returned a relative viability of 1.03.
The same measure, in the same setting: the value for `Nc1cccc2c1CN(C1CCC(=O)NC1=O)C2=O` (stereo not given) [Lenalidomide] + Nc1ncn([C@H]2C[C@H](O)[C@@H](CO)O2)c(=O)n1 [Decitabine] (partner 2 µM) was 0.582.
On the same count and under the same terms, then `Nc1cccc2c1CN(C1CCC(=O)NC1=O)C2=O` (stereo not given) [Lenalidomide] + Cc1nc(Nc2ncc(C(=O)Nc3c(C)cccc3Cl)s2)cc(N2CCN(CCO)CC2)n1 [Dasatinib] (partner 0.075 µM), with 0.375; and `Nc1cccc2c1CN(C1CCC(=O)NC1=O)C2=O` (stereo not given) [Lenalidomide] + N=C(N)NC(=N)NCCc1ccccc1 [Phenformin] (partner 250 µM), with 0.337; and `Nc1cccc2c1CN(C1CCC(=O)NC1=O)C2=O` (stereo not given) [Lenalidomide] + CC(=O)c1c(C)c2cnc(Nc3ccc(N4CCNCC4)cn3)nc2n(C2CCCC2)c1=O [Palbociclib] (partner 0.5 µM), with 0.489.

In another test the test system is NCI-H1915. The description is as above. Conditions: first compound 0.253 µM. The procedure, abridged: as §1
Turning to `Nc1cccc2c1CN(C1CCC(=O)NC1=O)C2=O` (stereo not given) [Lenalidomide] + CCNC(=O)c1noc(-c2cc(C(C)C)c(O)cc2O)c1-c1ccc(CN2CCOCC2)cc1 [Luminespib] (partner 0.01 µM), the relative viability was found to be 0.818.
`Nc1cccc2c1CN(C1CCC(=O)NC1=O)C2=O` (stereo not given) [Lenalidomide] + Nc1ncn([C@H]2C[C@H](O)[C@@H](CO)O2)c(=O)n1 [Decitabine] (partner 2 µM): the relative viability came out at 0.247.
The same measure, in the same setting: the value for `Nc1cccc2c1CN(C1CCC(=O)NC1=O)C2=O` (stereo not given) [Lenalidomide] + Cc1nc(Nc2ncc(C(=O)Nc3c(C)cccc3Cl)s2)cc(N2CCN(CCO)CC2)n1 [Dasatinib] (partner 0.075 µM) was 0.321; that for `Nc1cccc2c1CN(C1CCC(=O)NC1=O)C2=O` (stereo not given) [Lenalidomide] + N=C(N)NC(=N)NCCc1ccccc1 [Phenformin] (partner 250 µM) was 0.358.
Turning to `Nc1cccc2c1CN(C1CCC(=O)NC1=O)C2=O` (stereo not given) [Lenalidomide] + CC(=O)c1c(C)c2cnc(Nc3ccc(N4CCNCC4)cn3)nc2n(C2CCCC2)c1=O [Palbociclib] (partner 0.5 µM), the relative viability turned out to be 0.549.

Still in this test, the particulars now being: first compound 0.8 µM.
Consider `Nc1cccc2c1CN(C1CCC(=O)NC1=O)C2=O` (stereo not given) [Lenalidomide] + CCNC(=O)c1noc(-c2cc(C(C)C)c(O)cc2O)c1-c1ccc(CN2CCOCC2)cc1 [Luminespib] (partner 0.01 µM), for which the relative viability stood at 0.845.
`Nc1cccc2c1CN(C1CCC(=O)NC1=O)C2=O` (stereo not given) [Lenalidomide] + Nc1ncn([C@H]2C[C@H](O)[C@@H](CO)O2)c(=O)n1 [Decitabine] (partner 2 µM) displayed a relative viability of 0.253.
On the same count and under the same terms, then `Nc1cccc2c1CN(C1CCC(=O)NC1=O)C2=O` (stereo not given) [Lenalidomide] + Cc1nc(Nc2ncc(C(=O)Nc3c(C)cccc3Cl)s2)cc(N2CCN(CCO)CC2)n1 [Dasatinib] (partner 0.075 µM), with 0.329; and `Nc1cccc2c1CN(C1CCC(=O)NC1=O)C2=O` (stereo not given) [Lenalidomide] + N=C(N)NC(=N)NCCc1ccccc1 [Phenformin] (partner 250 µM), with 0.373; and `Nc1cccc2c1CN(C1CCC(=O)NC1=O)C2=O` (stereo not given) [Lenalidomide] + CC(=O)c1c(C)c2cnc(Nc3ccc(N4CCNCC4)cn3)nc2n(C2CCCC2)c1=O [Palbociclib] (partner 0.5 µM), with 0.554.
